In assay [1] the test system is Candida albicans ATCC 24433. The assay can be described thus: Turbidity method (Japanese Society for Medical Mycology microdilution). Format: cell-based. The following applies: C. albicans ATCC 24433, range over repeated tests (n = 10); for MIC: Candida albicans, ATCC24433. The procedure: (§1) For the comparison was used the 1.2% glucose MOPS buffered RPMI 1640medium and it was carried out according to the proposed method of Japanese Society for Medical Mycology (the microdilution method of 0.2 ml incubation system).

Assay [2] relates to Candida albicans ATCC 90028. The description is as above. Format: cell-based. The following applies: C. albicans ATCC 90028, range over repeated tests (n = 10); for MIC: Candida albicans, ATCC90028. As to the method: as §1
Assay [3] deals with Candida krusei ATCC 6258. Described as above. Type of assay: cell-based. The conditions noted are these: C. krusei ATCC 6258, range over repeated tests (n = 10); for MIC: Pichia kudriavzevii, ATCC6258. The procedure: as §1
Assay [4] concerns Candida parapsilosis ATCC 22019. Described as above. The conditions noted are these: C. parapsilosis ATCC 22019, range over repeated tests (n = 10); for MIC: Lodderomyces parapsilosis, ATCC22019. Type of assay: cell-based. As to the method: as §1
Assay [5] has as its system Candida parapsilosis ATCC 90018. The description is as above. Format: cell-based. The following applies: C. parapsilosis ATCC 90018, range over repeated tests (n = 7); for MIC: Lodderomyces parapsilosis, ATCC90018. As to the method:
as §1

The test system of assay [6] is Candida tropicalis ATCC 750. The description is as above. Type of assay: cell-based. The conditions noted are these: C. tropicalis ATCC 750, range over repeated tests (n = 10); for MIC: Candida tropicalis, ATCC750. The procedure: as §1
Assay [7] relates to Candida albicans ATCC 24433. The assay can be described thus: Microplate method of the invention (WST-8 color reagent). Type of assay: cell-based. The following applies: C. albicans ATCC 24433, range over repeated tests (n = 10), AMPH complete inhibition, 5-FC/FLCZ/MCZ IC80, 24 or 48 hrs, 35°C; for MIC: Candida albicans, ATCC24433. The procedure:
(§2) Four drugs of AMPH, 5-FC, FLCZ and MCZ were considered. The drug solution for the solid phase formation on the microplate was prepared as follows. The drug was dissolved in dimethylsulfoxide (DMSO) or diluted by using it. The solution was prepared so that it was AMPH 128 μg/ml, 5-FC 512 μg/ml, FLCZ 512 μg/ml or MCZ 256 μg/ml. By the use of the prepared drug the two fold dilution series was prepared in an appropriate concentration range with DMSO or water, and separately infused by 25 μl/well and formed into the dry and solid phase under vacuum (13.3-26.6 Pa) for 24 hrs. After the solid phase formation of the antifungal, the color reagent consisting of WST-8 0.7 mM, 1-methoxy PMS 3.5 μM, potassium ferricyanide 0.5 mM and potassium ferrocyanide 0.5 mM was separately infused by 20 μl/well and formed into the dry and solid phase under vacuum for 24 hrs.
(§3) By using the colony within 24 hrs. in the incubation was prepared the fungal suspension with the sterile saline 5 ml. The fungal suspension corresponding to McFarland # 0.5 was prepared by measuring the absorbancy at the wave length of 530 nm. 0.1 ml of the prepared fungal suspension was taken by the micropipette, added to 0.9 ml of the 1.2% glucose MOPS buffered PRMI 1640 medium, and stirred thoroughly by the vortex-mixer, and then 0.1 ml of this was taken by the micropipette, added to 20 ml of the […] MOPS buffered PRMI 1640 medium, and stirred thoroughly by the vortex-mixer to prepare the replicated fungal suspension (0.5×10^3−2.5×10^3 cfu/ml). The replicated fungal suspension prepared was separately inoculated by 200 μl into each well of the microplate dryly fixed with the drug having the concentration gradient of the two fold dilution prepared in the above B. After lidding the plate the aerobic culture was done at 35±1° C. The absorbancy at 630 nm of the growth control (the testing fungal strains were incubated in the well wherein the antifungal agents and the color reagent was not formed into the solid phase) after the 24 hrs. incubation was measured.
(§4) After stirring the microplate under shaking for 1 min., the absorbency of the dominant wave length 450 nm and the complementary wavelength 630 nm was measured, and the reading was carried out by the following method.
(§5) 1. The minimum concentration showing the absorbancy in AMPH equal to or less than that in the negative control was made the minimum growth inhibition concentration (MIC).
(§6) 2. The 80% growth inhibition concentration (IC 80) was read in 5-Fc, FLCZ and MCZ. The drug concentration of the well showing the absorbancy equal to or less than the absorbency obtained by the following equation was made MIC.
(§7) (IC80=(positive control−negative control)×0.2 +negative control)

Assay [8] has as its system Candida albicans ATCC 90028. The assay is described as above. Type of assay: cell-based. The conditions noted are these: C. albicans ATCC 90028, range over repeated tests (n = 10), AMPH complete inhibition, 5-FC/FLCZ/MCZ IC80, 24 or 48 hrs, 35°C; for MIC: Candida albicans, ATCC90028. The procedure:
as §2, §3, §4, §5, §6, §7

Assay [9] concerns Candida krusei ATCC 6258. The description is as above. Format: cell-based. The conditions noted are these: C. krusei ATCC 6258, range over repeated tests (n = 10), AMPH complete inhibition, 5-FC/FLCZ/MCZ IC80, 24 or 48 hrs, 35°C; for MIC: Pichia kudriavzevii, ATCC6258. As to the method:
as §2, §3, §4, §5, §6, §7

Assay [10] relates to Candida parapsilosis ATCC 22019. The description is as above. Format: cell-based. The conditions noted are these: C. parapsilosis ATCC 22019, range over repeated tests (n = 10), AMPH complete inhibition, 5-FC/FLCZ/MCZ IC80, 24 or 48 hrs, 35°C; for MIC: Lodderomyces parapsilosis, ATCC22019. As to the method: as §2, §3, §4, §5, §6, §7
Assay [11] concerns Candida parapsilosis ATCC 90018. Described as above. Format: cell-based. The following applies: C. parapsilosis ATCC 90018, range over repeated tests (n = 7), AMPH complete inhibition, 5-FC/FLCZ/MCZ IC80, 24 or 48 hrs, 35°C; for MIC: Lodderomyces parapsilosis, ATCC90018. As to the method:
as §2, §3, §4, §5, §6, §7

For assay [12], the system named is Candida tropicalis ATCC 750. The assay is described as above. Type of assay: cell-based. The following applies: C. tropicalis ATCC 750, range over repeated tests (n = 10), AMPH complete inhibition, 5-FC/FLCZ/MCZ IC80, 24 or 48 hrs, 35°C; for MIC: Candida tropicalis, ATCC750. The procedure: as §2, §3, §4, §5, §6, §7
Assay [13] deals with Candida parapsilosis ATCC 22019. The conditions noted are these: C. parapsilosis ATCC 22019; MIC acceptable range of NCCLS M27-A; cited from earlier work.
Assay [14] has as its system Candida krusei ATCC 6258. The conditions noted are these: C. krusei ATCC 6258; MIC acceptable range of NCCLS M27-A; cited from earlier work.
For assay [15], the system named is Candida albicans ATCC 90028. The conditions noted are these: C. albicans ATCC 90028; MIC acceptable range of NCCLS M27-A; cited from earlier work.
In assay [16] the test system is Candida albicans ATCC 24433. The conditions noted are these: C. albicans ATCC 24433; MIC acceptable range of NCCLS M27-A; cited from earlier work.
Assay [17] deals with Candida parapsilosis ATCC 90018. The following applies: C. parapsilosis ATCC 90018; MIC acceptable range of NCCLS M27-A; cited from earlier work.
Assay [18] has as its system Candida tropicalis ATCC 750. The conditions noted are these: C. tropicalis ATCC 750; MIC acceptable range of NCCLS M27-A; cited from earlier work.

Converted amounts (≈) assume the structure as drawn.

As for `Nc1[nH]c(=O)ncc1F` [5-FC, Flucytosine], the MIC was 0.5 to 2 µg/mL (≈ 3.87 to 15.5 µM) in assay [1]; 0.25 to 2 µg/mL (≈ 1.94 to 15.5 µM) in [2]; 8 to 16 µg/mL (≈ 62 to 124 µM) against Candida krusei ATCC 6258 [3]; 0.12 to 0.5 µg/mL (≈ 0.93 to 3.87 µM) in assay [4]; 0.12 µg/mL (≈ 0.93 µM) in [5]; 0.12 µg/mL (≈ 0.93 µM) in [6]. In addition, the minimal inhibitory concentration (MIC) in assay [7] is 0.5 to 2 µg/mL (≈ 3.87 to 15.5 µM); in [8], 0.25 to 1 µg/mL (≈ 1.94 to 7.75 µM); in the assay on Candida krusei ATCC 6258 [9], 8 to 16 µg/mL (≈ 62 to 124 µM); in assay [10], 0.12 to 0.5 µg/mL (≈ 0.93 to 3.87 µM); in assay [11], 0.12 µg/mL (≈ 0.93 µM); in assay [12] it was 0.12 µg/mL (≈ 0.93 µM). The MIC reference range in [13] is 0.12 to 0.5 µg/mL; in the assay with Candida krusei ATCC 6258 [14], 4.0 to 16 µg/mL; in assay [15] it was 0.5 to 2.0 µg/mL; in assay [16] it was 1.0 to 4.0 µg/mL; in assay [17], 0.12 to 0.25 µg/mL; in assay [18] it was 0.12 to 0.25 µg/mL.
With `C[C@@H]1[C@H](O)[C@@H](C)/C=C/C=C/C=C/C=C/C=C/C=C/C=C/[C@H](O[C@@H]2O[C@H](C)[C@@H](O)[C@H](N)[C@@H]2O)C[C@@H]2O[C@](O)(C[C@@H](O)C[C@@H](O)[C@H](O)CC[C@@H](O)C[C@@H](O)CC(=O)O[C@H]1C)C[C@H](O)[C@H]2C(=O)O` [AMPH, Amphotericine B], the “MIC, Turbidity method” value lay within 0.12 to 0.5 µg/mL in [1]; 0.12 to 0.5 µg/mL in [2]; 0.12 to 0.5 µg/mL in the assay on Candida krusei ATCC 6258 [3]; 0.06 to 0.25 µg/mL in [4]; 0.12 to 0.25 µg/mL in assay [5]; 0.12 to 0.5 µg/mL in assay [6]. The “MIC, Method of the invention” value in assay [7] fell in the range of 0.12 to 0.5 µg/mL; in assay [8], 0.12 to 0.5 µg/mL; against Candida krusei ATCC 6258 [9], 0.25 to 0.5 µg/mL; in assay [10], 0.12 to 1.0 µg/mL; in [11], 0.12 to 0.25 µg/mL; in assay [12] it was 0.12 to 0.5 µg/mL. Further, the MIC reference range in assay [13] is 0.25 to 1.0 µg/mL; with Candida krusei ATCC 6258 [14], 0.5 to 2.0 µg/mL; in assay [15], 0.5 to 2.0 µg/mL; in assay [16] it was 0.25 to 1.0 µg/mL; in [17], 0.5 to 2.0 µg/mL; in assay [18] it was 0.5 to 2.0 µg/mL.
In the case of `OC(Cn1cncn1)(Cn1cncn1)c1ccc(F)cc1F` [FLCZ, Fluconazole], the MIC in [1] is 0.12 to 1 µg/mL (≈ 0.392 to 3.27 µM); in assay [2], 0.12 to 0.25 µg/mL (≈ 0.392 to 0.816 µM); against Candida krusei ATCC 6258 [3], 8 to 64 µg/mL (≈ 26.1 to 209 µM); in [4] it was 1 to 2 µg/mL (≈ 3.27 to 6.53 µM); in assay [5], 0.5 µg/mL (≈ 1.63 µM); in assay [6], 0.5 to 1 µg/mL (≈ 1.63 to 3.27 µM). The MIC lay within 0.25 to 8 µg/mL (≈ 0.816 to 26.1 µM) in assay [7]; 0.25 to 1 µg/mL (≈ 0.816 to 3.27 µM) in assay [8]; 16 to 64 µg/mL (≈ 52.2 to 209 µM) against Candida krusei ATCC 6258 [9]; 2 to 4 µg/mL (≈ 6.53 to 13.1 µM) in assay [10]; 0.5 to 2 µg/mL (≈ 1.63 to 6.53 µM) in [11]; 0.5 to 2 µg/mL (≈ 1.63 to 6.53 µM) in assay [12]. Also, the MIC reference range in [13] was 2.0 to 8.0 µg/mL; in the assay on Candida krusei ATCC 6258 [14] it was 16 to 64 µg/mL; in assay [15], 0.25 to 1.0 µg/mL; in assay [16], 0.25 to 1.0 µg/mL; in assay [17], 0.25 to 1.0 µg/mL; in [18], 1.0 to 4.0 µg/mL.
In the case of `Clc1ccc(COC(Cn2ccnc2)c2ccc(Cl)cc2Cl)c(Cl)c1` (stereo not drawn) [MCZ, Miconazole], the MIC was in the range of 0.06 to 0.5 µg/mL (≈ 0.144 to 1.2 µM) in [1]; 0.06 to 0.12 µg/mL (≈ 0.144 to 0.288 µM) in assay [2]; 0.25 to 1 µg/mL (≈ 0.601 to 2.4 µM) against Candida krusei ATCC 6258 [3]; 0.25 to 0.5 µg/mL (≈ 0.601 to 1.2 µM) in assay [4]; 0.06 to 0.25 µg/mL (≈ 0.144 to 0.601 µM) in assay [5]; 0.12 to 1 µg/mL (≈ 0.288 to 2.4 µM) in assay [6]. For the same compound, the MIC lay within 0.06 to 1 µg/mL (≈ 0.144 to 2.4 µM) in [7]; 0.06 to 0.12 µg/mL (≈ 0.144 to 0.288 µM) in assay [8]; 0.25 to 1 µg/mL (≈ 0.601 to 2.4 µM) against Candida krusei ATCC 6258 [9]; 0.5 to 1 µg/mL (≈ 1.2 to 2.4 µM) in assay [10]; 0.12 to 0.5 µg/mL (≈ 0.288 to 1.2 µM) in assay [11]; 0.25 to 2 µg/mL (≈ 0.601 to 4.81 µM) in assay [12].

A word on the MIC: it is the least concentration at which growth counts as inhibited.

Source of the values: patent publication US6428974B1, “Microplate for drug susceptibility testing containing a drug, a color reagent, and color suppressant” (Kanto Kagaku Kabushiki Kaisha, priority 1998, dated 2002).
